# Reference: patent publication US8815909B2, “Diaminocyclohexane compounds and uses thereof” (Bristol-Myers Squibb Company, priority 2011, dated 2014)
# Target: T1, human Y4 receptor (Homo sapiens, UniProt P50391)
# T1 construct: expressed in transfected cells
# Experiment: NPY4 cAMP HTRF Agonist Assay (inhibitory cAMP assay, Gi activation by Y4 agonism)
# Assay type: cell-based
# Conditions: TABLE 5, R2 is Pyridinyl-CF3; read-out: hY4 CAMP EC50
# Summary of the method: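 CHO cells stably expressing human Y4, 5000/well, exposed to compound with forskolin and IBMX in PBS for 30 min at room temperature. Gi-mediated inhibition of cAMP then measured by HTRF after 1 h with d2-conjugate and anti-cAMP cryptate.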
# T1 sequence (P50391 whole entry): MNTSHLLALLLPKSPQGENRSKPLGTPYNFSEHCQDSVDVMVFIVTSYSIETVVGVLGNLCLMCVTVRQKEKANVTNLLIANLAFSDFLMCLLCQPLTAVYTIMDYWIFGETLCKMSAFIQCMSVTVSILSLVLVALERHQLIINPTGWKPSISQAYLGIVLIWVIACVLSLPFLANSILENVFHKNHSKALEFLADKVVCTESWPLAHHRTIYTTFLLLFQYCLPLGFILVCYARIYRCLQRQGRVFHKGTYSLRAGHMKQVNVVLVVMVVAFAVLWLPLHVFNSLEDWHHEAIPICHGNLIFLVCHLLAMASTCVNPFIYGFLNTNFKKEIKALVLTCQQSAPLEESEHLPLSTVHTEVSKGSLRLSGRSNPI
row,Compound,EC50 [nM]
1,NC(=O)c1cccc(-c2ccnc(N[C@@H]3CCCC[C@H]3N[C@H]3CCCN(c4ccc(C(F)(F)F)nc4)C3)c2)c1 [Example 321],16
2,C[C@]1(N[C@@H]2CCCC[C@H]2Nc2cc(-c3cccc(C(N)=O)c3)ccn2)CCCN(c2ccc(C(F)(F)F)nc2)C1 [Example 323],17

# Results, then the compound that gave them:
row,EC50 [nM],Compound
1,1,NC(=O)c1cccc(-c2cnc(N[C@@H]3CCCC[C@H]3N[C@H]3CCCN(c4ccc(C(F)(F)F)cn4)C3)o2)c1 [Example 318]
2,10,NC(=O)c1cccc(-c2ccnc(N[C@@H]3CCCC[C@H]3N[C@H]3CCCN(c4ccc(C(F)(F)F)cn4)C3)c2)c1 [Example 319]
3,1,NC(=O)c1cccc(-c2cnc(N[C@@H]3CCCC[C@H]3N[C@H]3CCCN(c4ccc(C(F)(F)F)nc4)C3)o2)c1 [Example 320]
4,2,C[C@]1(N[C@@H]2CCCC[C@H]2Nc2ncc(-c3cccc(C(N)=O)c3)o2)CCCN(c2ccc(C(F)(F)F)nc2)C1 [Example 322]
5,52,O=C(O)c1cccc(-c2cnc(N[C@@H]3CCCC[C@H]3N[C@H]3CCCN(c4ccc(C(F)(F)F)nc4)C3)o2)c1 [Example 324]
6,567,NC(=O)c1cccc(-c2cnc(N[C@@H]3CCCC[C@H]3N[C@H]3C[C@@H]4C[C@H]3N(c3ccnc(C(F)(F)F)c3)C4)o2)c1 [Example 325]
7,9,NC(=O)c1cccc(-c2cnc(N[C@@H]3CCCC[C@H]3N[C@H]3C[C@@H]4C[C@H]3N(c3ccc(C(F)(F)F)cn3)C4)o2)c1 [Example 326]
8,180,NC(=O)c1cccc(-c2ccnc(N[C@@H]3CCCC[C@H]3N[C@H]3C[C@@H]4C[C@H]3N(c3ccc(C(F)(F)F)nc3)C4)c2)c1 [Example 327]
9,31,NC(=O)c1cccc(-c2cnc(N[C@@H]3CCCC[C@H]3N[C@H]3C[C@@H]4C[C@H]3N(c3ccc(C(F)(F)F)nc3)C4)o2)c1 [Example 328]
10,1,C[C@]1(N[C@@H]2CCCC[C@H]2Nc2ncc(-c3cccc(C(N)=O)c3)o2)CCCN(c2ccc(C(F)(F)F)cn2)C1 [Example 329]
11,166,COC(=O)c1cccc(-c2cnc(N[C@@H]3CCCC[C@H]3N[C@H]3CCCN(c4ccc(C(F)(F)F)cn4)C3)o2)c1 [Example 330]
12,5,COC(=O)Nc1cccc(-c2cnc(N[C@@H]3CCCC[C@H]3N[C@H]3CCCN(c4ccc(C(F)(F)F)nc4)C3)o2)c1 [Example 331]
13,24,C[C@]1(N[C@@H]2CCCC[C@H]2Nc2cc(-c3cccc(C(N)=O)c3)ccn2)CCCN(c2ccc(C(F)(F)F)cn2)C1 [Example 332]
14,95,CC(C)(C)OC(=O)Nc1cccc(-c2cnc(N[C@@H]3CCCC[C@H]3N[C@H]3CCCN(c4ccc(C(F)(F)F)nc4)C3)o2)c1 [Example 333]
15,3,O=C(Nc1cccc(-c2cnc(N[C@@H]3CCCC[C@H]3N[C@H]3CCCN(c4ccc(C(F)(F)F)nc4)C3)o2)c1)C1CC1 [Example 334]
16,1600,COc1ccc(-c2cnc(N[C@@H]3CCCC[C@H]3N[C@H]3CCCN(c4ccc(C(F)(F)F)nc4)C3)o2)cc1C#N [Example 335]
17,212,FC(F)(F)Oc1ccc(-c2cnc(N[C@@H]3CCCC[C@H]3N[C@H]3CCCN(c4ccnc(C(F)(F)F)c4)C3)o2)cc1 [Example 336]
18,26,NC(=O)c1cccc(-c2ccnc(N[C@@H]3CCCC[C@H]3N[C@H]3C[C@@H]4C[C@H]3N(c3ccc(C(F)(F)F)cn3)C4)c2)c1 [Example 337]
19,226,FC(F)(F)Oc1ccc(-c2cnc(N[C@@H]3CCCC[C@H]3N[C@H]3C[C@@H]4C[C@H]3N(c3ccc(C(F)(F)F)cn3)C4)o2)cc1 [Example 338]

# Same assay, conditions: TABLE 7, R2 is Pyridinyl-oxadiazole-CH3; read-out: hY4 CAMP EC50
row,EC50 [nM],Compound
1,5,Cc1nc(-c2ccc(N3CCC[C@](C)(N[C@@H]4CCCC[C@H]4Nc4cc(-c5cccc(C(N)=O)c5)ccn4)C3)cn2)no1 [Example 381]
2,1,COC(=O)Nc1cccc(-c2cnc(N[C@@H]3CCCC[C@H]3N[C@H]3CCCN(c4ccc(-c5noc(C)n5)nc4)C3)o2)c1 [Example 382]
3,14,COC(=O)c1cccc(-c2cnc(N[C@@H]3CCCC[C@H]3N[C@H]3CCCN(c4ccc(-c5noc(C)n5)nc4)C3)o2)c1 [Example 383]
4,606,Cc1nc(-c2ccc(N3CCC[C@H](N[C@@H]4CCCC[C@H]4Nc4ncc(-c5cccc(C(=O)O)c5)o4)C3)cn2)no1 [Example 384]

# Same assay, conditions: human Y4 receptor, cAMP; read-out: hY4 CAMP EC50
row,Compound,EC50 [nM]
1,COC(=O)Nc1cccc(-c2ccnc(N[C@@H]3CCCC[C@H]3N[C@H]3CCCN(c4ccc(-c5noc(C)n5)cc4)C3)c2)c1 [Example 339],0.1
2,CCOC(=O)Nc1cccc(-c2cnc(N[C@@H]3CCCC[C@H]3N[C@H]3CCCN(c4ccc(-c5noc(C)n5)cc4)C3)o2)c1 [Example 340],3
3,Cc1nc(-c2ccc(N3CCC[C@H](N[C@@H]4CCCC[C@H]4Nc4cc(-c5ccc(F)c(F)c5)ccn4)C3)cc2)no1 [Example 342],8
4,Cc1nc(-c2ccc(N3CCC[C@H](N[C@@H]4CCCC[C@H]4Nc4cc(-c5ccc(F)cc5F)ccn4)C3)cc2)no1 [Example 343],11
5,Cc1nnc(-c2ccc(N3CCCC(N[C@@H]4CCCC[C@H]4Nc4cc(-c5cccnc5)ccn4)C3)cc2)o1 (some centres unmarked) [Example 345],64
6,Cc1nnc(-c2ccc(N3CCC[C@H](N[C@@H]4CCCC[C@H]4Nc4ncc(-c5cccc(C(N)=O)c5)o4)C3)cc2)o1 [Example 346],306
7,Cc1nc(-c2ccc(N3CCC[C@H](N[C@@H]4CCCC[C@H]4Nc4cc(-c5cccc(C(N)=O)c5)ccn4)C3)cc2)no1 [Example 347],0.2
8,Cc1nnc(-c2ccc(N3CCC[C@H](N[C@@H]4CCCC[C@H]4Nc4cc(-c5cccc(C(N)=O)c5)ccn4)C3)cc2)o1 [Example 349],1
9,Cc1nnc(-c2ccc(N3CCC[C@H](N[C@@H]4CCCC[C@H]4Nc4cc(Br)ccn4)C3)cc2)o1 [Example 352],318
10,Cc1noc(-c2ccc(N3CCC[C@H](N[C@@H]4CCCC[C@H]4Nc4nccc(-c5ccccc5)n4)C3)cc2)n1 [Example 354],15
11,Cc1noc(-c2ccc(N3CCC[C@H](N[C@@H]4CCCC[C@H]4Nc4cc(-c5cccc(C(C)(C)O)c5)ccn4)C3)cc2)n1 [Example 362],23
12,Cc1noc(-c2ccc(N3CCC[C@H](N[C@@H]4CCCC[C@H]4Nc4cc(-c5cccc(OC(F)(F)F)c5)ccn4)C3)cc2)n1 [Example 363],314
13,Cc1nnc(-c2ccc(N3CCCC(N[C@@H]4CCCC[C@H]4Nc4cc(-c5ccc(F)cc5)ccn4)C3)cc2)o1 (some centres unmarked) [Example 364],3
14,Cc1nnc(-c2ccc(N3CCCC(N[C@@H]4CCCC[C@H]4Nc4cc(-c5ccc(Cl)cc5)ccn4)C3)cc2)o1 (some centres unmarked) [Example 365],52
15,COc1ccc(-c2ccnc(N[C@@H]3CCCC[C@H]3NC3CCCN(c4ccc(-c5nnc(C)o5)cc4)C3)c2)cc1 (some centres unmarked) [Example 366],323
16,Cc1nnc(-c2ccc(N3CCCC(N[C@@H]4CCCC[C@H]4Nc4cc(-c5ccccc5F)ccn4)C3)cc2)o1 (some centres unmarked) [Example 367],9
17,Cc1nnc(-c2ccc(N3CCCC(N[C@@H]4CCCC[C@H]4Nc4cc(-c5ccc6c(c5)OCO6)ccn4)C3)cc2)o1 (some centres unmarked) [Example 368],39
18,Cc1nnc(-c2ccc(N3CCCC(N[C@@H]4CCCC[C@H]4Nc4cc(-c5ccncc5)ccn4)C3)cc2)o1 (some centres unmarked) [Example 369],5
19,Cc1nnc(-c2ccc(N3CCCC(N[C@@H]4CCCC[C@H]4Nc4cc(-c5ccc(O)cc5)ccn4)C3)cc2)o1 (some centres unmarked) [Example 370],3
20,Cc1nnc(-c2ccc(N3CCCC(N[C@@H]4CCCC[C@H]4Nc4cc(-c5cncc6ccccc56)ccn4)C3)cc2)o1 (some centres unmarked) [Example 371],18
21,COc1ncccc1-c1ccnc(N[C@@H]2CCCC[C@H]2NC2CCCN(c3ccc(-c4nnc(C)o4)cc3)C2)c1 (some centres unmarked) [Example 372],59
22,Cc1noc(-c2ccc(N3CCC[C@H](N[C@@H]4CCCC[C@H]4Nc4cc(-c5cccc(C(N)=O)c5)ccn4)C3)cc2)n1 [Example 374],2
23,Cc1nnc(-c2ccc(N3CCC[C@H](N[C@@H]4CCCC[C@H]4Nc4cc(-c5ccc(OC(F)F)cc5)ccn4)C3)cc2)o1 [Example 375],217
24,NC(=O)c1cccc(-c2ccnc(N[C@@H]3CCCC[C@H]3N[C@H]3CCCN(c4ccc(-c5ncon5)cc4)C3)c2)c1 [Example 376],15
25,Cc1nnc(-c2ccc(N3CCC[C@H](N[C@@H]4CCCC[C@H]4Nc4cc(-c5cccc(S(N)(=O)=O)c5)ccn4)C3)cc2)o1 [Example 377],93
26,Cc1nc(-c2ccc(N3CCC[C@H](N[C@@H]4CCCC[C@H]4Nc4cc(-c5cccc(C(N)=O)c5)ccn4)C3)cn2)no1 [Example 378],4
27,Cc1noc(-c2ccc(N3CCC[C@H](N[C@@H]4CCCC[C@H]4Nc4ncc(-c5cccc(C(N)=O)c5)o4)C3)cc2)n1 [Example 379],1

# Other lines, results leading:
row,EC50 [nM],Compound
1,123,Cc1nc(-c2ccc(N3CCC[C@H](N[C@@H]4CCCC[C@H]4Nc4cc(-c5cccc(OC(F)(F)F)c5)ccn4)C3)cc2)no1 [Example 341]
2,3,Cc1nnc(-c2ccc(N3CCC[C@H](N[C@@H]4CCCC[C@H]4Nc4ncc(-c5ccccc5OC(F)(F)F)o4)C3)cc2)o1 [Example 348]
3,9,Cc1nc(-c2ccc(N3C[C@@H]4C[C@H](N[C@@H]5CCCC[C@H]5Nc5nccc(-c6ccccc6)n5)[C@H]3C4)cc2)no1 [Example 350]
4,448,Cc1nc(-c2ccc(N3C[C@@H]4C[C@H](N[C@@H]5CCCC[C@H]5Nc5ncc(-c6ccc(OC(F)(F)F)cc6)o5)[C@H]3C4)cc2)no1 [Example 351]
5,1,Cc1nc(-c2ccc(N3C[C@@H]4C[C@H](N[C@@H]5CCCC[C@H]5Nc5cc(-c6cccc(C(N)=O)c6)ccn5)[C@H]3C4)cc2)no1 [Example 353]
6,225,Cc1noc(-c2ccc(N3CCC[C@H](N[C@@H]4CCCC[C@H]4Nc4ncc(-c5ccc(OC(F)(F)F)cc5)o4)C3)cc2)n1 [Example 355]
7,17,Cc1nnc(-c2ccc(N3CCCC(N[C@@H]4CCCC[C@H]4Nc4cc(-c5cccc(OC(F)(F)F)c5)ccn4)C3)cc2)o1 (some centres unmarked) [Example 358]
